{"source": "paper PMC11971462", "about": "“Generation and validation of a novel multitarget small molecule in glioblastoma” (Cell Death & Disease, 2025)", "assay": "In vivo toxicity assay (body weight, organ macroscopy)", "set-up": "species or system athymic nude-Foxn1nu mice", "conditions": "intraperitoneal 15 mg/mL, 5 times per week for 4 weeks", "procedure": "15 mg/mL of DDI199 or vehicle (DMSO) were intraperitoneally injected in athymic nude-Foxn1^nu mice following a schedule of 5 days on and 2 days off and changes in body weight were measured to assess the potential toxicity of the MSM. At the end-point macroscopic analysis of the different organs was done.", "data": [{"smiles": "C#CCN(Cc1cc2cc(OCCCN3CCCCC3)ccc2n1S(=O)(=O)c1ccccc1)C(=O)CCCCCCC(=O)NO", "note": "[DDI199]", "values": [{"measurement": "Body weight of animals compared to controls", "value": "did not significantly affect the body weight"}, {"measurement": "Macroscopic analysis of organs at end-point", "value": "did not observe any difference"}]}]}
